The text below walks through data of US20190133518A1, “METHODS AND SYSTEMS FOR DETERMINING DIURETIC RESPONSE PROFILES” (PACESETTER, INC., priority 2017, published 2019).

The assay has as its system patient. Briefly: Mean PAP measurements of a patient before and after taking medication (Example 1, medication modification). The class given is in vivo. The text has this: In accordance with the present disclosure, an exemplary embodiment is as follows. A patient implanted with CARDIOMEMS, instead of simply providing a single reading each day, provides a reading twice a week (or daily) via the following protocol: First, the patient wakes up in the morning and takes a PAP reading (prior to any medication ingestion). Immediately thereafter, the patient takes all medications, which include HF medications including diuretic(s). A timer goes off in the bed-side monitor (patient home electronics unit), and about sixty minutes later, the patient takes another PAP recording. As noted elsewhere throughout this disclosure, the timing between readings is variable.
The protocol based recordings are marked with a unique identifier and transmitted to a database (e.g., Merlin.net database). The protocol based PAP recordings are then used to determine the diuretic response profile of the patient. Specifically, the response profile is determined using PAP measurement data-points at time […] (pre medication) and time (t2) (“x” minutes after medication) and the time constant of the specific diuretic via, for example, a polynomial regression fit. For example, the time constant of furosemide is shorter than the longer acting thiazide diuretic.
This example examined the characterization/determination of medication dosage and temporal response in a patient given different kinds of medication. […] The mean PAP measurement of the patient at time (t1) was about 35 mmHg. […].

As for `NS(=O)(=O)c1cc(C(=O)O)c(NCc2ccco2)cc1Cl` [furosemide], for the setting “week 1, 80 mg furosemide, about 1 hour after medication (FIG. 6A)”, the “average PAP measurement at time (t2)” value is listed as “about 19 mmHg”. For the same compound, the “mean PAP measurement at time (t3)” value (week 1, 80 mg furosemide, about 2 hours after medication (FIG. 6A)) was “about 21 mmHg”. Further, the “mean PAP measurement at time (t1)” value is “about 35 mmHg” (week 1, 80 mg furosemide, t1 prior to medication (FIG. 6A)); “about 31 mmHg” (week 2, 80 mg furosemide, t1 prior to medication (FIG. 6B)); “about 31 mmHg” (week 10, 80 mg furosemide, prior to ingestion of the medication (FIG. 6C)). Moreover, for the setting “week 2, 80 mg furosemide (FIG. 6B)”, the “mean PAP measurements at time (t2) and time (t3) compared with week 1” value is given as “similar”. In addition, the “mean PAP measurement after medication” value is, setting by setting: (week 2, 80 mg furosemide, after medication (FIG. 6B)) “about 19 mmHg”; (week 10, 80 mg furosemide, time (t2) and time (t3) (FIG. 6C)) “about 27 mmHg”. Also, the “diuretic profile in the patient” value (week 10, 80 mg furosemide (FIG. 6C)) is “early signs of developing diuretic resistance”.
